Literature values in patent publication US7981649B2 (priority 2001, dated 2011).

System: human hepatocyte and neuroblastoma cells

Row | Structure (SMILES) | effect on cell metabolism
1 | CCOP(=O)(OCC)Oc1ccc([N+](=O)[O-])cc1 [paraoxon] | opposite effects on hepatocyte and neuroblastoma cell metabolism
2 | CCOP(=S)(OCC)Oc1ccc([N+](=O)[O-])cc1 [parathion] | opposite effects on hepatocyte and neuroblastoma cell metabolism
